Measurements reported in ChEMBL document CHEMBL5725341, “Tricyclic compounds for use as kinase inhibitors” (2017).

Tests used:
[1] = molecular target: Serine/threonine-protein kinase pim-2 (Homo sapiens, UniProt Q9P1W9); experiment: PIM-2 Biochemical Assay: The biochemical assay to measure PIM-2 activity relies on the ADP Hunter assay kit (DiscoveRx Corp., Cat. #90-0077), that determines the amount of ADP as direct product of the kinase enzyme activity.
[2] = molecular target: Serine/threonine-protein kinase pim-1 (Homo sapiens, UniProt P11309); experiment: PIM-1 Biochemical Assay: The biochemical assay to measure PIM-1 activity relies on the ADP Hunter assay kit (DiscoveRx Corp., Cat. #90-0077), that determines the amount of ADP as direct product of the kinase enzyme activity.
Serine/threonine-protein kinase pim-1, sequence (P11309 whole entry): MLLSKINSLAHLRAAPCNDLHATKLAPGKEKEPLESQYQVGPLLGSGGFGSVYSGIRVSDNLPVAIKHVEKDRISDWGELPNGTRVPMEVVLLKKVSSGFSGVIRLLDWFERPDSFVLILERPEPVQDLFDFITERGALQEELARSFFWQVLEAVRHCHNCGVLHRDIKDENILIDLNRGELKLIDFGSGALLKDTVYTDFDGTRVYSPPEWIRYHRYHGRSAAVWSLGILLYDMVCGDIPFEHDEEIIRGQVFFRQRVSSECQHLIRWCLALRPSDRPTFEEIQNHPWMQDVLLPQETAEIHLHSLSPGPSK

[3] = molecular target: Serine/threonine-protein kinase pim-3 (Homo sapiens, UniProt Q86V86); experiment: PIM-3 Biochemical Assay: The biochemical assay to measure PIM-3 activity relies on the ADP Hunter assay kit (DiscoveRx Corp., Cat. #90-0077), that determines the amount of ADP as direct product of the kinase enzyme activity.

Serine/threonine-protein kinase pim-2, sequence (Q9P1W9 whole entry): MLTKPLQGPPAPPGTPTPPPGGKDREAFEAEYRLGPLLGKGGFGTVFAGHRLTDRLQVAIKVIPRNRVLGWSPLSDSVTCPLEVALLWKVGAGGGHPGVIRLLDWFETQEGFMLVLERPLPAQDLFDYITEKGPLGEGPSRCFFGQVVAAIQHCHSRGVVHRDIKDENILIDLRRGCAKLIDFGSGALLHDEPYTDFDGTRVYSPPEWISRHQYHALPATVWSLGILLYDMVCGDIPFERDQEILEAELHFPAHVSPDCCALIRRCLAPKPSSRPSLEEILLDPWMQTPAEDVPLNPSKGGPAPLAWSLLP

Row | Structure (SMILES) | IC50 [1] | IC50 [2] | IC50 [3]
1 | CN1CCOc2c(NCCN3CCOCC3)nn3c(-c4cccc(OC(F)(F)F)c4)nnc3c21 | > 1000 nM | > 1000 nM | 
2 | CN1CCN(CCNc2nn3c(-c4cccc(OC(F)(F)F)c4)nnc3c3c2OCCN3C)CC1 | > 1000 nM | > 1000 nM | 
3 | CN1CCOc2c1c(NCCN1CCOCC1)nn1c(-c3cccc(OC(F)(F)F)c3)nnc21 |  | < 100 nM | 
4 | CN1CCOc2c1c(NCCc1cccnc1)nn1c(-c3cccc(OC(F)(F)F)c3)nnc21 |  | < 100 nM | 
5 | CN1CCOc2c1c(NCC13CCN(CC1)C3)nn1c(-c3cccc(OC(F)(F)F)c3)nnc21 | > 1000 nM | < 100 nM | 
6 | CN1CCOc2c(N3CCC(N(C)C)CC3)nn3c(-c4cccc(OC(F)(F)F)c4)nnc3c21 | > 1000 nM | > 1000 nM | 
7 | CN1CCOc2c(NCCN3CCNCC3)nn3c(-c4cccc(OC(F)(F)F)c4)nnc3c21 | > 1000 nM |  | 
8 | CN1CCOc2c1c(NCC1CC3(CCNCC3)C1)nn1c(-c3cccc(OC(F)(F)F)c3)nnc21 |  | < 100 nM | < 100 nM
